Source: patent publication US20100173332A1, “Method for the Fluorescent Detection of Nitroreductase Activity Using Nitro-Substituted Aromatic Compounds” (Auckland Uniservices Limited, priority 2006, published 2010)
“Also recorded” adds a separate entry of the source. Where a name gives a salt, the structure may show the parent alone.

Tests used:
[1] = molecular target: T1, NAD(P)H dehydrogenase quinone 1 (DT-diaphorase; NQO1) (Homo sapiens, UniProt P15559); test: Detecting human aerobic nitroreductase activity in MDA231 DTD cells; type: cell-based; details: for fluorescent signal in the presence of human NQO1 expression: MDA231 DTD cells, 100 μM, 4 hr (FIG. 5)
T1 construct: expressed in transfected cells; host or cells: MDA231 human breast cancer cell line, clonal derivative MDA231 DTD
Method: The human breast cancer cell line (MDA231^WT) and a clonal derivative (MDA231^DTD) engineered to express the human aerobic reductase, NAD(P)H dehydrogenase quinone 1 (DT-diaphorase; NQO1) under the control of a constitutive promoter were seeded into 96-well plates at a density of 1×10^5 cells/well. When samples were equilibrated to 37° C., 5% CO2 for 2 hr and compounds 1 to 15 were added to a final concentration of 100 μM for 4 hr. Test groups were cell-free culture media alone (control), MDA231^WT and MDA231^DTD. The fluorescence signal was monitored at 355/460 except for compounds 4 and 11 that were monitored at 405/585 and compounds 8 and 10 that were monitored at 355/585 and 355/535 respectively (FIG. 5).
In a further exemplification, the human breast cancer cell line (MDA231^WT) and a clonal derivative (MDA231^DTD) engineered to express the human NQO1 gene (DT-diaphorase) under the control of a constitutive promoter were seeded into 96-well tissue culture plates at 1×10^5 cells/well. Samples were equilibrated to 37° C., 5% CO2, compound (1) (6-nitro-4(1H)-quinolinone) was added to a final concentration of 300 μM. Test groups were culture media alone (control), MDA231^WT cells and MDA231^DTD cells. The rate of fluorescence signal generation at 355/460 was monitored as a function of time (FIG. 6).

[2] = molecular target: T2, E. coli nitroreductase (nfsB) (Escherichia coli, UniProt P38489); test: Entrapment of fluorescent products within nitroreductase expressing HCT116 cells; type: cell-based; details: washed
T2 construct: expressed in transfected cells; host or cells: MDA231 (MDA-231) human breast cancer cell line, clonal derivative MDA231 NTR
Method: The human colorectal cancer cell line (HCT116^WT) and a clonal derivative (HCT116^NTR) engineered to express the reporter gene E. coli nitroreductase (nfsB) under the control of a constitutive promoter were seeded onto glass coverslips at an equal density (50:50). Cells were equilibrated to 37° C., 5% CO2, and compound 1 and 13 was added to a final concentration of 100 μM for 1 hr. Cells were washed free of compound after 1 hour and fluorescence was monitored as a function of time (FIG. 8).
In further screening (FIG. 9), the human colorectal cancer cell line (HCT116^WT) and a clonal derivative (HCT116^NTR) engineered to express the reporter gene E. coli nitroreductase (nfsB) under the control of a constitutive promoter were seeded separately into a 96-well glass plate. Cells were equilibrated to 37° C., 5% CO2, and compounds were added to a final concentration of 10 μM for 1.5 hr. Cells were washed free of compound and fluorescence was monitored 6 hours post-exposure. […] The image has been rendered monochromatic for the purposes of publication quality.

[3] = Aqueous stability in minimal essential media in the absence of cells (background fluorescence); type: physicochemical; details: for increase in background florescence in culture media: 300 μM, minimal essential media, 37° C., 5% CO2, 355/460, over 7.8 hours; for aqueous stability compared with methyl-7-nitrocoumarin carboxylate and 7-nitrocoumarin-3-carboxylic acid: FIG. 11
Method: In a further experiment, the aqueous stability of compounds 1 and 2 were compared with the compounds methyl-7-nitrocoumarin carboxylate and 7-nitrocoumarin-3-carboxylic acid in the absence of cell culture. Minimal essential media was equilibrated to 37° C., 5% CO2 for 2 hr and compounds were added to a final concentration of 300 μM. […]

[4] = Aerobic/anaerobic stability in cell-free culture media (fluorescence); type: physicochemical; details: 100 μM, 37° C., 4 hr, air or 95% N2
Method: Compounds 1-15 or methyl 7-nitrocoumarin carboxylate (methyl 7-nitro-2-oxo-2H-chromene-3-carboxylate) or 7-nitrocoumarin-3-carboylic acid or 6-chloro-9-nitro-5H-benzo[a]phenoxazin-5-one were added to a final concentration of 100 μM in cell-free culture media and were held at 37° C., 5% CO2 for 4 hr under either air or 95% N2. The fluorescence signal was monitored at 355/460 except for compounds 4 and 11 that were monitored at 405/585 and compounds 8, 10 and 6-Cl-9-nitro-5-oxo-5H-benzo[a]phenoxazine that were monitored at 355/585, 355/535 and 530/585 respectively (FIG. 12).

[5] = molecular target: T2, E. coli nitroreductase (nfsB); test: Nitroreductase specificity: fluorescence in MDA231 NTR versus MDA231 WT cells; type: cell-based; details: for differential fluorescent signal MDA231 NTR versus MDA231 WT: 95% N2, 355/460, at 7.5 hours
Method: The human breast cancer cell line (MDA231^WT) and a clonal derivative (MDA231^NTR) engineered to overexpress the E. coli nitroreductase (nfsB) under the control of a constitutive promoter were seeded into 96-well plates at a density of 2×10^4 cells/well. When samples were equilibrated to 37° C., 95% N2, 5% CO2 for 2 hr and compound 2 or methyl 7-nitrocoumarin carboxylate (methyl 7-nitro-2-oxo-2H-chromene-3-carboxylate) were added to a final concentration of 300 μM. The fluorescence signal was monitored at 355/460 over a 7.5 hour time frame (FIG. 10).

[6] = molecular target: T2, E. coli nitroreductase (nfsB); test: Rate of fluorescence signal generation in stirred HCT116 NTR cell suspension; type: cell-based; details: 300 μM, 355/460
Method: In a further exemplification, the human colorectal cancer cell line (HCT116^WT) and a clonal derivative (HCT116^NTR) engineered to express the reporter gene E. coli nitroreductase (nfsB) under the control of a constitutive promoter were suspended in stirred culture media at a density of 5×10^6 cells/ml. When samples were equilibrated to 37° C., 5% CO2, compound (2) (1-methyl-6-nitro-4(1H)-quinolinone) was added to a final concentration of 300 μM. Test groups were culture media alone (control), HCT116^WT and HCT116^NTR. The rate of fluorescence signal generation at 355/460 was monitored as a function of time (FIG. 4).

[7] = 300 μM, 95% N2, 355/460, 7.5 hour time frame

T1 sequence (P15559 whole entry): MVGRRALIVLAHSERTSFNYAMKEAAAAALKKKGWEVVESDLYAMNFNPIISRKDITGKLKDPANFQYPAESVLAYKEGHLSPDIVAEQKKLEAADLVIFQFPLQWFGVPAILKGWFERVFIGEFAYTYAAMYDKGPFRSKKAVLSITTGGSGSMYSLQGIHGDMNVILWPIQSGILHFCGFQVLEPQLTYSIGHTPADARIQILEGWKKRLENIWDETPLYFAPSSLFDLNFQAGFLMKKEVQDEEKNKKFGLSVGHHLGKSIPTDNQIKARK
T2 sequence (P38489 whole entry): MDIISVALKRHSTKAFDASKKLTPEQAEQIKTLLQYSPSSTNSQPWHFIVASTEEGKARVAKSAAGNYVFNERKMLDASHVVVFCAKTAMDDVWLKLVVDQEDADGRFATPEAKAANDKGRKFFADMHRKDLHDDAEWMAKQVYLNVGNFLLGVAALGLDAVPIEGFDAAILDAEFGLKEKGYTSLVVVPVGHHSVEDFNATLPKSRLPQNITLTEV

## COC(=O)CCCNS(=O)(=O)c1cccc2c([N+](=O)[O-])cccc12 [Compound 8, methyl 4-{[(5-nitro-1-naphthyl)sulfonyl]amino}butanoate]
other
  melting point: 94 to 96 °C

## Cn1ccc(=O)c2cc(N)ccc21 [Compound 17, 6-Amino-1-methyl-4(1H)-quinolinone]
other
  melting point: 212 to 214 °C

## O=c1cc[nH]c2ccc([N+](=O)[O-])cc12 [Compound 1, 6-Nitro-4(1H)-quinolinone]
[1]; 300 μM, 355/460
  fluorescence in wells with compound alone (control) or parental MDA231 WT: No detectable fluorescence
[1]; 300 μM, 355/460 (FIG. 6)
  fluorescent signal generation by MDA231 DTD cells as a function of time: generate a fluorescent signal
[1]
  fluorescent signal in the presence of human NQO1 expression: gave rise to a fluorescent signal
[2]; HCT116 WT:HCT116 NTR 50:50 co-culture, 100 μM for 1 hr, by 4 hours
  retention of fluorescence in cells after wash: no longer fluorescent
[3]
  increase in background florescence in culture media: 1.4 fold
  aqueous stability compared with methyl-7-nitrocoumarin carboxylate and 7-nitrocoumarin-3-carboxylic acid: superior aqueous stability

## CN(C)CCCCN1C(=O)c2cccc3cc(N)cc(c23)C1=O [Compound 19, 5-Amino-2-[4-(dimethylamino)butyl]-1H-benzo[de]isoquinoline-1,3(2H)-dione]
other
  melting point: 99 to 101 °C

## Cc1cc(=O)c2cc([N+](=O)[O-])ccc2[nH]1 [Compound 3, 2-Methyl-6-nitro-4(1H)-quinolinone]
[1]
  fluorescent signal in the presence of human NQO1 expression: gave rise to a fluorescent signal; also recorded: generate a fluorescent signal

## CN(C)CCCNc1ccnc2cc([N+](=O)[O-])ccc12 [Compound 15, N^1,N^1-Dimethyl-N^3-(7-nitro-4-quinolinyl)-1,3-propanediamine]
[2]; 10 μM for 1.5 hr, 6 hours post-exposure
  cellular retention of fluorescence in nitroreductase expressing but not parental HCT116 cells: possessing cellular retention properties

## CN(C)CCCOc1ccnc2cc([N+](=O)[O-])ccc12 (as salt: trifluoroacetate) [Compound 14, N,N-dimethyl-3-[(7-nitro-4-quinolinyl)oxy]-1-propanamine]
other
  melting point: 146 to 149 °C

## CN(C)CCNC(=O)c1cc(N)cc2c(=O)c3ccccc3[nH]c12 [Compound 18, 2-Amino-N-[2-(dimethylamino)ethyl]-9-oxo-9,10-dihydro-4-acridinecarboxamide]
other
  melting point: 198 to 202 °C

## O=c1c(Cl)c2oc3cc([N+](=O)[O-])ccc3nc-2c2ccccc12 [6-chloro-9-nitro-5H-benzo[a]phenoxazin-5-one]
[4]
  fluorescence in cell-free culture media (instability): measurable fluorescence; also recorded: lacks stability in culture medium under conditions of low oxygen

## COC(=O)c1cc2ccc([N+](=O)[O-])cc2oc1=O [methyl 7-nitrocoumarin carboxylate, methyl 7-nitro-2-oxo-2H-chromene-3-carboxylate, reference compound]
[4]
  fluorescence in cell-free culture media (instability): measurable fluorescence
[5]; [7]
  fluorescence in control cell line MDA231 WT: measurable fluorescence
[5]; 300 μM
  differential fluorescent signal MDA231 NTR versus MDA231 WT: 1.6 fold
[3]
  increase in background florescence in culture media: 4.2 fold

## COC(=O)CCCNS(=O)(=O)c1ccc2cccc(N)c2c1 [Compound 22, Methyl 4-{[(8-amino-2-naphthyl)sulfonyl]amino}butanoate]
other
  melting point: 162 to 167 °C

## O=C(O)c1cc2ccc([N+](=O)[O-])cc2oc1=O [7-nitrocoumarin-3-carboxylic acid, reference compound]
[4]
  fluorescence in cell-free culture media (instability): measurable fluorescence
[3]
  increase in background florescence in culture media: 5.3 fold

## Cn1ccc(=O)c2cc([N+](=O)[O-])ccc21 [Compound 2, 1-Methyl-6-nitro-4(1H)-quinolinone]
[6]; 5×10^6 cells/ml
  time by which reduction by HCT116 NTR cells approached completion: ≤ 9 h
[6]
  fluorescence in control or parental HCT116 WT cultures: No detectable fluorescence
[5]; [7]
  fluorescence in control cell line MDA231 WT: no detectable fluorescence
  fluorescence in nitroreductase-expressing cell line MDA231 NTR: robust fluorescent signal
[5]; 300 μM
  differential fluorescent signal MDA231 NTR versus MDA231 WT: 480 fold
[5]; FIG. 10
  performance as nitroreductase fluorescent reporter relative to methyl 7-nitrocoumarin carboxylate: superiority
[3]
  increase in background florescence in culture media: 1.4 fold
  aqueous stability compared with methyl-7-nitrocoumarin carboxylate and 7-nitrocoumarin-3-carboxylic acid: superior aqueous stability
